Here are results for one compound from article PMC6318274, “Lattice engineering enables definition of molecular features allowing for potent small-molecule inhibition of HIV-1 entry” (Nature Communications, 2019).

The subject of the assay is SVA.MLV. Nature of the assay: Neutralization assay, control virus SVA.MLV. The format is cell-based. Conditions: clade NA. The procedure:
Neutralization was measured using single-round-of-infection HIV-1 Env-pseudoviruses and TZM-bl target cells (ARP Cat No. #8129)[44],[45]. Compounds were prepared at 400 μM with 4% DMSO (dimethyl sulfoxide) in PBS (phosphate-buffered saline) and diluted 20 times as the starting concentration for serial dilution in the neutralization assays. Pseudoviruses of ten strains from HIV-1 clades A, B, and C were incubated with serial dilutions of drug compounds, then added to TZM-bl target cells which have a luciferase reporter gene. After incubation at 37 °C for 2 days, infection of target cells was measured by luciferase activity. Neutralization curves were fit by nonlinear regression using a five-parameter hill slope equation[45].

The term IC50 denotes the concentration at which inhibition is half-maximal. Low values mean inhibition by little substance, high ones a need for much substance.

Take `COc1cnc(-c2csc(C(=O)NCCO)n2)c2[nH]cc(C(=O)C(=O)N3CCC(=C(C#N)c4ccccc4)CC3)c12` [BMS-818251]: the IC50 is greater than 20 µM.
